Each compound was assayed against T1, human recombinant mGluR5 (Homo sapiens, UniProt P41594) (assay: Positive modulation of mGluR5, calcium based FLIPR assay in HEK 293 cells). Details: EC50 of the modulation; HEK 293 cell line expressing human recombinant mGluR5; glutamate at approximately 5% basal stimulation; peak height of Ca release fluorescence signal.
T1 construct: expressed in transfected cells; host or cells: HEK 293 cell line
Description: The positive modulation of mGluR5 is measured in a HEK 293 cell line expressing human recombinant mGluR5 and is detected with calcium based FLIPR assay. The cells are cultured with DMEM supplemented with 10% FCS, 2 μg/mL tetracycline, 100 μg/mL hygromycin and 500 μg/mL gneticin. The cell culture media is exchanged for tetracycline-free cell culture media 3-7 days before the assay. One day before the assay the cell culture medium is exchanged to DMEM without glutamine and phenol red and supplemented with 10% FCS, 100 μg/mL hygromycin and 500 μg/mL geneticin. On the assay day, the medium of the subconfluent cultures is removed and the cells are detached by addition of 2.5 ml EDTA(0.02%) per 175 cm2 culture flask for 1 minute. The cells are resuspend in Ringer solution (140 mM NaCl, 5 mM KCl, 2.5 mM CaCl2, 1.5 mM MgCl2, 5 mM Glucose, 10 mM Hepes; adjusted to pH 7.4 with NaOH), pooled and Ringer solution added to adjust the volume to 50 mL. The cell suspension is centrifuged for […] at 1500 U/min (425 g). The supernatant is removed and the cells washed a second time with 50 ml fresh Ringer solution and centrifuged again as before. The supernatant is again removed and the pellet resuspended in Ringer solution to 1,000,000 cells/ml (1×10^6 cells/mL). The cells are plated onto BD BioCoat Poly-D-Lysine 384 well plates (20.000 cells/well; 20 μl/well). The lid covered plates are then incubated until use at 37° C./10% CO2. For dye loading, 20 μl of Calcium-4 assay kit solution (prepared according to the manufacturer's description in Ringer solution) are added to the cells and the plates are incubated for 80 min 37° C. and then 10 min at room temperature.
Controls, Compound Dilution and Assay Execution:
Each assay plate contained wells with “high” and “low” controls:
Low controls 1% DMSO/ringer solution+basal glutamate activation (defined as 100% CTL).
High controls 10 μM CDPPB+basal glutamate activation (defined as 200% CTL).
Test compounds are dissolved and diluted in DMSO to 100-fold the desired concentrations. In a second step, the compounds are diluted in Ringer solution such that the compounds are 4-fold more concentrated than the desired final assay concentration. The final DMSO concentration was 1%.
20 μl of each compound solution are then transferred to the assay plate and the Ca2+ kinetic is measured to determine any intrinsic compound activity. After 5 min incubation in the FLIPR device, the second stimulation with 20 μl of glutamate in Ringer solution (glutamate concentration adjusted to approximately 5% basal stimulation of the maximal possible glutamate effect) is added and the kinetic Ca2+ response of the wells was measured for the modulation effect.
The peak height of the Ca release related fluorescence signal (9-66) is used for the EC50. The EC50 of the modulation is calculated over a nonlinear regression with GraphPad Prism (Table 1).

T1 sequence (P41594 21-1212): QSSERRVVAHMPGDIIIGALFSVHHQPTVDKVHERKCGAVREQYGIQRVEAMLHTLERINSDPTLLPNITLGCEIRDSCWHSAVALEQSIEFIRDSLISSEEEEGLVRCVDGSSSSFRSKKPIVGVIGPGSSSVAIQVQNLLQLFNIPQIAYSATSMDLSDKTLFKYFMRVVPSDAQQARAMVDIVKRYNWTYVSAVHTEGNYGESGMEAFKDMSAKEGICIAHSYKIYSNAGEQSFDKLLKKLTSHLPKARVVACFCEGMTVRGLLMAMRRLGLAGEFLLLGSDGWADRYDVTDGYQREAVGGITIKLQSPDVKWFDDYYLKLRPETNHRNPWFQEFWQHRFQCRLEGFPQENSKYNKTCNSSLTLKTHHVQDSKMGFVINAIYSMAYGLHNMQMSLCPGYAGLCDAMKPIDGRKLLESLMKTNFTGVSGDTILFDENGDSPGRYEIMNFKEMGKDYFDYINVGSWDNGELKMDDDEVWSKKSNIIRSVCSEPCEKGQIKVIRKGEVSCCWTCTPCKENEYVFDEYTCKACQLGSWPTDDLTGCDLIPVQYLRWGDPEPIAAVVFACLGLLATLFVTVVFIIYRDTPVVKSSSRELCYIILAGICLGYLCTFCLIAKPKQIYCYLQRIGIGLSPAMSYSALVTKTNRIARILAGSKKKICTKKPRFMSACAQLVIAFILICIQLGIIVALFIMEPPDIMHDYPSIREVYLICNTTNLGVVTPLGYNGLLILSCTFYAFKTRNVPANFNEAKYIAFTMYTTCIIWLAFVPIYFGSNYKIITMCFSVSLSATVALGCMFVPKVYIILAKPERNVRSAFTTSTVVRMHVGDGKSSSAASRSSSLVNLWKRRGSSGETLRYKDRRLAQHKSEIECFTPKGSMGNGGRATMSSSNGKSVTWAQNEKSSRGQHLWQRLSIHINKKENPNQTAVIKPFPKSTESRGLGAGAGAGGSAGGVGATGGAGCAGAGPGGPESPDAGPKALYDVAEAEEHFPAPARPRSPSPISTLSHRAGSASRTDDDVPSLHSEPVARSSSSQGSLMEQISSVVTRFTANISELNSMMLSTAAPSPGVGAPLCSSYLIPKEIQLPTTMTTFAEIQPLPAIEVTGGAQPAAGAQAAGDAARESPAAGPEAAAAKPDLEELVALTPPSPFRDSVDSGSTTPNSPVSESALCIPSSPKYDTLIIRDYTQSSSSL

Compound	EC50 [nM]
O=C(Cc1nc(-c2ccccc2)cn1-c1ccccc1)N1CCN(c2ncccn2)CC1 [Example 7.01.01., 2-(1,4-diphenyl-1H-imidazol-2-yl)-1-(4-pyrimidin-2-yl-piperazin-1-yl)-ethanone]	155
O=C(Cc1nc(-c2ccc(F)cc2)cn1-c1ccc(F)cc1)N1CCN(c2ncccn2)CC1 [Example 7.01.02.]	43
COc1ccc(-c2cn(-c3ccc(OC)cc3)c(CC(=O)N3CCN(c4ncccn4)CC3)n2)cc1 [Example 7.01.03.]	88
Cc1ccc(-n2cc(-c3ccccc3)nc2CC(=O)N2CCN(c3ncccn3)CC2)cc1 [Example 7.01.04.]	211
O=C(Cc1nc(-c2ccc(F)cc2)cn1-c1ccc(F)cc1)N1CCN(c2ccccn2)CC1 [Example 7.02.01., 2-(1,4-Bis-(4-fluoro-phenyl)-1H-imidazol-2-yl)-1-(4-pyridin-2-yl-piperazin-1-yl)-ethanonene]	54
COc1ccnc(N2CCN(C(=O)Cc3nc(-c4ccc(F)cc4)cn3-c3ccc(F)cc3)CC2)c1 [Example 7.03.01., 2-(1,4-Bis-(4-fluoro-phenyl)-1H-imidazol-2-yl)-1-(4-(4-methoxy-pyridin-2-yl)-piperazin-1-yl)-ethanone]	57
O=C(Cc1nc(-c2ccc(F)cc2)cn1-c1ccc(F)cc1)N1CCN(c2cccnn2)CC1 [Example 7.03.02.]	112
O=C(Cc1nc(-c2ccc(F)cc2)cn1-c1ccc(F)cc1)N1CCN(c2ncncn2)CC1 [Example 7.04.01., 2-(1,4-Bis-(4-fluoro-phenyl)-1H-imidazol-2-yl)-1-(4-[1,3,5]triazin-2-yl-piperazin-1-yl)-ethanone]	52
COc1cc(N2CCN(C(=O)Cc3nc(-c4ccc(F)cc4)cn3-c3ccc(F)cc3)CC2)ncn1 [Example 7.04.02.]	80
Cc1ccc(-c2cn(-c3ccc(F)cc3)c(CC(=O)N3CCN(c4cccnn4)CC3)n2)cc1 [Example 7.04.03.]	42
Cc1ccc(-c2cn(-c3ccc(F)cc3)c(CC(=O)N3CCN(c4ncccn4)CC3)n2)cc1 [Example 7.04.04.]	18
COc1ccnc(N2CCN(C(=O)Cc3nc(-c4ccc(C)cc4)cn3-c3ccc(F)cc3)CC2)c1 [Example 7.04.05.]	42
Cc1ccc(-c2cn(-c3ccc(F)cc3)c(CC(=O)N3CCN(c4ccccn4)CC3)n2)cc1 [Example 7.04.06.]	36
COc1cc(N2CCN(C(=O)Cc3nc(-c4ccc(C)cc4)cn3-c3ccc(F)cc3)CC2)ncn1 [Example 7.04.07.]	114
Cc1ccc(-c2cn(-c3ccc(F)cc3)c(CC(=O)N3CCN(c4ncncn4)CC3)n2)cc1 [Example 7.04.08.]	41
COc1cnc(N2CCN(C(=O)Cc3nc(-c4ccc(C)cc4)cn3-c3ccc(F)cc3)CC2)nc1 [Example 7.04.09.]	20
COc1ccc(-c2cn(-c3ccc(F)cc3)c(CC(=O)N3CCN(c4ncccn4)CC3)n2)cc1 [Example 7.04.10.]	20
COc1ccc(-c2cn(-c3ccc(F)cc3)c(CC(=O)N3CCN(c4cccnn4)CC3)n2)cc1 [Example 7.04.11.]	40
COc1ccc(-c2cn(-c3ccc(F)cc3)c(CC(=O)N3CCN(c4cc(OC)ccn4)CC3)n2)cc1 [Example 7.04.12.]	40
COc1ccc(-c2cn(-c3ccc(F)cc3)c(CC(=O)N3CCN(c4ccccn4)CC3)n2)cc1 [Example 7.04.13.]	37
COc1ccc(-c2cn(-c3ccc(F)cc3)c(CC(=O)N3CCN(c4cc(OC)ncn4)CC3)n2)cc1 [Example 7.04.14.]	33
COc1ccc(-c2cn(-c3ccc(F)cc3)c(CC(=O)N3CCN(c4ncncn4)CC3)n2)cc1 [Example 7.04.15.]	91
COc1ccc(-c2cn(-c3ccc(F)cc3)c(CC(=O)N3CCN(c4ncc(OC)cn4)CC3)n2)cc1 [Example 7.04.16.]	47
Cc1cc(-c2cn(-c3ccc(F)cc3)c(CC(=O)N3CCN(c4ncccn4)CC3)n2)ccc1Cl [Example 7.04.17.]	21
Cc1cc(-c2cn(-c3ccc(F)cc3)c(CC(=O)N3CCN(c4ccccn4)CC3)n2)ccc1Cl [Example 7.04.18.]	30
Cc1cc(-c2cn(-c3ccc(F)cc3)c(CC(=O)N3CCN(c4cccnn4)CC3)n2)ccc1Cl [Example 7.04.19.]	13
COc1ccnc(N2CCN(C(=O)Cc3nc(-c4ccc(Cl)c(C)c4)cn3-c3ccc(F)cc3)CC2)c1 [Example 7.04.20.]	69

Compound	EC50 [nM]
COc1cc(N2CCN(C(=O)Cc3nc(-c4ccc(Cl)c(C)c4)cn3-c3ccc(F)cc3)CC2)ncn1 [Example 7.04.21.]	114
Cc1cc(-c2cn(-c3ccc(F)cc3)c(CC(=O)N3CCN(c4ncncn4)CC3)n2)ccc1Cl [Example 7.04.22.]	35
Cc1cc(-c2cn(-c3ccc(F)cc3)c(CC(=O)N3CCN(c4ccccn4)CC3)n2)ccc1F [Example 7.04.23.]	42
Cc1cc(-c2cn(-c3ccc(F)cc3)c(CC(=O)N3CCN(c4cccnn4)CC3)n2)ccc1F [Example 7.04.24.]	64
Cc1cc(-c2cn(-c3ccc(F)cc3)c(CC(=O)N3CCN(c4ncccn4)CC3)n2)ccc1F [Example 7.04.25.]	21
COc1cc(N2CCN(C(=O)Cc3nc(-c4ccc(F)c(C)c4)cn3-c3ccc(F)cc3)CC2)ncn1 [Example 7.04.26.]	41
COc1ccnc(N2CCN(C(=O)Cc3nc(-c4ccc(F)c(C)c4)cn3-c3ccc(F)cc3)CC2)c1 [Example 7.04.27.]	44
Cc1cc(-c2cn(-c3ccc(F)cc3)c(CC(=O)N3CCN(c4ncncn4)CC3)n2)ccc1F [Example 7.04.28.]	24
COc1ccc(-c2cn(-c3ccccc3)c(CC(=O)N3CCN(c4cc(OC)ncn4)CC3)n2)cc1 [Example 7.04.29.]	119
COc1ccc(-c2cn(-c3ccccc3)c(CC(=O)N3CCN(c4ccccn4)CC3)n2)cc1 [Example 7.04.30.]	190
COc1ccc(-c2cn(-c3ccccc3)c(CC(=O)N3CCN(c4cc(OC)ccn4)CC3)n2)cc1 [Example 7.04.31.]	146
COc1ccc(-c2cn(-c3ccccc3)c(CC(=O)N3CCN(c4ncncn4)CC3)n2)cc1 [Example 7.04.32.]	281
COc1ccc(-c2cn(-c3ccccc3)c(CC(=O)N3CCN(c4ncccn4)CC3)n2)cc1 [Example 7.04.33.]	112
COc1ccc(-c2cn(-c3ccccc3)c(CC(=O)N3CCN(c4ncc(F)cn4)CC3)n2)cc1 [Example 7.04.34.]	95
COc1ccc(-c2cn(-c3ccccc3)c(CC(=O)N3CCN(c4ncc(OC)cn4)CC3)n2)cc1 [Example 7.04.35.]	76
COc1ccc(-c2cn(-c3ccc(F)cc3)c(CC(=O)N3CCN(c4ncc(F)cn4)CC3)n2)cc1 [Example 7.04.36.]	57
COc1cccc(-c2cn(-c3ccc(F)cc3)c(CC(=O)N3CCN(c4ncccn4)CC3)n2)c1 [Example 7.04.37.]	46
COc1cccc(-c2cn(-c3ccc(F)cc3)c(CC(=O)N3CCN(c4cc(OC)ncn4)CC3)n2)c1 [Example 7.04.38.]	108
COc1cccc(-c2cn(-c3ccc(F)cc3)c(CC(=O)N3CCN(c4cc(OC)ccn4)CC3)n2)c1 [Example 7.04.39.]	106
COc1cccc(-c2cn(-c3ccc(F)cc3)c(CC(=O)N3CCN(c4ncncn4)CC3)n2)c1 [Example 7.04.40.]	143
COc1cccc(-c2cn(-c3ccc(F)cc3)c(CC(=O)N3CCN(c4ccccn4)CC3)n2)c1 [Example 7.04.41.]	92
Cc1cc(-c2cn(-c3ccccc3)c(CC(=O)N3CCN(c4ccccn4)CC3)n2)ccc1F [Example 7.04.42.]	24
COc1cc(N2CCN(C(=O)Cc3nc(-c4ccc(F)c(C)c4)cn3-c3ccccc3)CC2)ncn1 [Example 7.04.43.]	19
Cc1cc(-c2cn(-c3ccccc3)c(CC(=O)N3CCN(c4ncccn4)CC3)n2)ccc1F [Example 7.04.44.]	11
COc1ccnc(N2CCN(C(=O)Cc3nc(-c4ccc(F)c(C)c4)cn3-c3ccccc3)CC2)c1 [Example 7.04.45.]	28
COc1cnc(N2CCN(C(=O)Cc3nc(-c4ccc(F)c(C)c4)cn3-c3ccccc3)CC2)nc1 [Example 7.04.46.]	21
